Calls of active or inactive are those of the source. Bounds are passed on as bounds.

Experiment [1] concerns the target T1, Heat shock factor protein 1 (Mus musculus, UniProt P38532).
T1 sequence (P38532 whole entry): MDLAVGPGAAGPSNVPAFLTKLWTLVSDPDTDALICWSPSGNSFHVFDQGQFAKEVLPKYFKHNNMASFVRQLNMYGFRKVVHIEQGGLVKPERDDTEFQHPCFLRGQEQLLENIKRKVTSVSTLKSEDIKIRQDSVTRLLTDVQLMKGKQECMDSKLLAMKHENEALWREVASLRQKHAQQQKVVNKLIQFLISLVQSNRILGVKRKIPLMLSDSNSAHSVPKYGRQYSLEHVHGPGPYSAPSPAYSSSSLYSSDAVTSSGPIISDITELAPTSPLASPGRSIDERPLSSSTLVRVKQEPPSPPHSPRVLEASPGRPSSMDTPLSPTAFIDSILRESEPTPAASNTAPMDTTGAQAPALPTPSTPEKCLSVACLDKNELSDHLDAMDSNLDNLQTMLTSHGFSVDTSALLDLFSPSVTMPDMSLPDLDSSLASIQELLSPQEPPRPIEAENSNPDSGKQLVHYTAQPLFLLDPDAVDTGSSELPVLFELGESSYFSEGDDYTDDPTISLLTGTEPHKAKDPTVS
Nature of the experiment: enhancement of HSF1-driven luciferase signal – cell-based, NIH3T3, luminescence, dose retest, confirmation (AID 435004).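 Further: stress induced by proteasome inhibitor MG132 added 30 min after compound; luciferase reporter driven by HSF1 response element in NIH3T3 cells; actives raise luminescence as potentiators of the MG132 stress response.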 The format is functional.

Experiment [2] has as its target Photoreceptor-specific nuclear receptor (Homo sapiens, UniProt Q9Y5X4). Type of experiment: functional, cell-based.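 Further: CHO-S cells with Gal4-NCOR and VP16-NR2E3 two-hybrid luciferase reporter.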
Experiment [3] in a line: cells. Type of experiment: functional, cell-based.
A further experiment has as its target Beta-galactosidase (Escherichia coli, UniProt Q8VNN2). Nature of the experiment: PubChem AID 485352. Type of experiment: functional.
Experiment [4] concerns the target T2, Type-1 angiotensin II receptor (Homo sapiens, UniProt P30556).
T2 sequence (P30556 whole entry): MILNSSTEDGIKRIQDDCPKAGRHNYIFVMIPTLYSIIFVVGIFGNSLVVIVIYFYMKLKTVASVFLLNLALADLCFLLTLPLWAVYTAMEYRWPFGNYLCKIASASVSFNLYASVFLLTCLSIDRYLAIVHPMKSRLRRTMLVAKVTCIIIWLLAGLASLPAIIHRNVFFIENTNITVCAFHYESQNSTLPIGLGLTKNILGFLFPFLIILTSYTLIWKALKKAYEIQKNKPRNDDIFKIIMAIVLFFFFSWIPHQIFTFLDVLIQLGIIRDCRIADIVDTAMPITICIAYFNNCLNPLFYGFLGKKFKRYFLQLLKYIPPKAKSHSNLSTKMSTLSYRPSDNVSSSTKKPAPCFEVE
Nature of the experiment: antagonism of angiotensin II type 1 receptor – cell-based, uHTS hits, selectivity assay for APJ receptor antagonist project, dose response (AID 463214).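 Further: antagonist potency against angiotensin II stimulated AT1 response.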 Type of experiment: functional.

Experiment [5] can be described thus: cells. The format is functional, cell-based. The source holds these as a separate data set.
A further experiment deals with INS1. Nature of the experiment: INS-1E survival protection against cytokine death – cell-based, luminescence, retest, dose response (AID 449756).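 Further: cell death triggered by IL-1 beta plus TNF-alpha plus IFN-gamma mixture; protective hits raise ATP signal compared with cytokine alone wells.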 The format is functional. Particulars: Rattus norvegicus.
Experiment [6] has as its target T3, Methionyl-tRNA synthetase, putative (Trypanosoma brucei brucei, UniProt Q38C91).
T3 sequence (Q38C91 whole entry): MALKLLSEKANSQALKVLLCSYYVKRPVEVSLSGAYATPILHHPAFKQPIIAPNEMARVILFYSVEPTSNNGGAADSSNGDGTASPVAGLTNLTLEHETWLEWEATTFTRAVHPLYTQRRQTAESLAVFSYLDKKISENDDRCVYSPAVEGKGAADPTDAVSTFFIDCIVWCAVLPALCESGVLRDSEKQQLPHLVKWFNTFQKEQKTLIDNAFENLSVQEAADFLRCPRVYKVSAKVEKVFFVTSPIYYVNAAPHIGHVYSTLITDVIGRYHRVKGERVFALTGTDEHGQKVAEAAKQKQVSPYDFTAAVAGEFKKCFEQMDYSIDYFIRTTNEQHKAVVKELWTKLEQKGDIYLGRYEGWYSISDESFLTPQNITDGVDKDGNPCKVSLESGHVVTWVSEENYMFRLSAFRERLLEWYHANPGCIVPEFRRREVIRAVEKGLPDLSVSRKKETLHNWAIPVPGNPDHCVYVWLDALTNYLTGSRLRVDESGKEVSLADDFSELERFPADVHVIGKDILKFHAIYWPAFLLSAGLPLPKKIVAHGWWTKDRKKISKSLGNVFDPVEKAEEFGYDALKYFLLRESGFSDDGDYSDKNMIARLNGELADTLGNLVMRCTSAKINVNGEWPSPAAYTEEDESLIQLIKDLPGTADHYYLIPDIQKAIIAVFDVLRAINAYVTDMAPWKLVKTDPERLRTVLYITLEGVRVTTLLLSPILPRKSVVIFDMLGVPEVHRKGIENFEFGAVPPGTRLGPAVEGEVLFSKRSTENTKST
Type of experiment: functional, Trypanosoma brucei brucei strain 927/4 GUTat10.1.

Experiment [7] in a line: Counterscreen for inhibitors of Trypanosoma brucei methionyl tRNA synthetase (MetRS): Luminescence-based cell-based high throughput dose response assay to identify compounds that are cytotoxic to Jurkat human T lymphocyte cells. The format is functional.
In experiment [8] the target is T3, Methionyl-tRNA synthetase, putative. Type of experiment: functional, Trypanosoma brucei brucei strain 927/4 GUTat10.1. This is another data set of the same source.
The target in experiment [9] is T4, Adenosylmethionine-8-amino-7-oxononanoate aminotransferase (Mycobacterium tuberculosis, UniProt P9WQ81).
T4 sequence (P9WQ81 whole entry): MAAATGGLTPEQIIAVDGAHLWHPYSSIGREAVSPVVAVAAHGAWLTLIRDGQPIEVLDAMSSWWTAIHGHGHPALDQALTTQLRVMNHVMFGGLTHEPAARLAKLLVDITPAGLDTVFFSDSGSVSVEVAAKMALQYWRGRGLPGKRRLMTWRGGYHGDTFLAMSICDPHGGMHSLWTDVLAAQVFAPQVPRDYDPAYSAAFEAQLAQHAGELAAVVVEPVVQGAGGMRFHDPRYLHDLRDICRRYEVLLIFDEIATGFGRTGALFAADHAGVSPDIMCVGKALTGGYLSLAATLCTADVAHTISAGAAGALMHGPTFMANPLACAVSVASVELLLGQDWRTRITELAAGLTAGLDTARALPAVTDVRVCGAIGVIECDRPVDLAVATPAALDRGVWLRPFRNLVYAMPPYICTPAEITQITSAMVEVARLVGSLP
Nature of the experiment: Mycobacterium tuberculosis BioA enzyme inhibitor Measured in Biochemical System Using Plate Reader - 2163-02_Inhibitor_Dose_CherryPick_Activity. The format is functional, Mycobacterium tuberculosis UT205.

Experiment [10] deals with Streptococcus sp. 'group A'. Nature of the experiment: Streptococcus pyogenes SK(-)GAS viability under kanamycin – luminescence, BacTiterGlo, confirmation, counter-screen for streptokinase expression inhibitor project, dose response (AID 1900). The format is functional, organism-based.
A further experiment addresses T5, Streptokinase A (Streptococcus pyogenes serotype M1, UniProt P10520).
T5 sequence (P10520 whole entry): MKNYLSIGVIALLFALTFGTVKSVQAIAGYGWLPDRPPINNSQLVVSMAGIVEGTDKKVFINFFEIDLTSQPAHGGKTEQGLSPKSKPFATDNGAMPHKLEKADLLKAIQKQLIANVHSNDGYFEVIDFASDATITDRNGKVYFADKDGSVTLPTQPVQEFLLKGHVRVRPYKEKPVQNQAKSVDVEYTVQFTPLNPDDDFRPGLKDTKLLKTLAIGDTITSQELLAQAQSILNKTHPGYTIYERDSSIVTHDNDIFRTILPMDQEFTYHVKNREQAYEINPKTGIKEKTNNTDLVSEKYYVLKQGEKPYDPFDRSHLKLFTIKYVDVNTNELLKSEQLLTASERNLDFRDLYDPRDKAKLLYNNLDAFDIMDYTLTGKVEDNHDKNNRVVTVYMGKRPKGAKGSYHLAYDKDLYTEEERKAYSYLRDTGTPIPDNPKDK
Nature of the experiment: viability-normalized secreted streptokinase activity reduction – plasminogen activation absorbance, OD405, dose response (AID 1914).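 Further: secreted streptokinase activity via plasminogen activation per viability signal from cell pellet.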 Type of experiment: functional, Streptococcus pyogenes M1 GAS.

The subject of another experiment is Streptococcus. Nature of the experiment: GAS UMAA2166 growth inhibition – luminescence, BacTiterGlo, counter-screen for streptokinase expression inhibitor project, dose response (AID 1915).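 Further: potency for reduction of bacterial viability or growth.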 Type of experiment: functional, organism-based.
A short description of experiment [11]: Trypanosoma cruzi growth suppression in host cells – NIH3T3 host cells, beta-gal luminescence, confirmation (AID 2044).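 Further: intracellular parasites grown in NIH/3T3 mouse fibroblasts as host cells; luminescent beta-galactosidase reporter signal from transgenic T. cruzi replicating inside host cells; inhibitors lower the luminescence signal.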 The format is functional, cell-based.
Experiment [12] is described as follows: NIH3T3 cell viability loss – ATP luminescence, mouse fibroblasts, counter-screen, dose response (AID 2010).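 Further: cells exposed to compound for about 90 hours before reading.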 The format is functional, cell-based.
The target in experiment [13] is Induced myeloid leukemia cell differentiation protein Mcl-1 (Homo sapiens, UniProt Q07820). Type of experiment: functional.
The target of experiment [14] is 26S proteasome non-ATPase regulatory subunit 14 (Homo sapiens, UniProt O00487). Nature of the experiment: inhibition of proteasome subunit RPN11 – biochemical, fluorescence polarization, uHTS hits, confirmation (AID 602368). Type of experiment: functional.
Experiment [15] concerns the target 72 kDa type IV collagenase (Homo sapiens, UniProt P08253). Nature of the experiment: Dose Response validation of uHTS RPN11 inhibitor hits using a MMP-2 Fluorescence assay. Type of experiment: functional.
Another experiment addresses Prothrombin (Bos taurus, UniProt P00735). Nature of the experiment: thrombin protease inhibitors – biochemical, fluorescence polarization, uHTS hits, dose response (AID 602369). Type of experiment: functional.
Experiment [16] deals with FAD-linked sulfhydryl oxidase ALR (Homo sapiens, UniProt P55789). Nature of the experiment: ALR-catalysed DTT oxidation blockers – biochemical, H2O2 detection, luminescence, cherry-pick, dose response (AID 493248).
Chain of FAD-linked sulfhydryl oxidase ALR (P55789 whole entry): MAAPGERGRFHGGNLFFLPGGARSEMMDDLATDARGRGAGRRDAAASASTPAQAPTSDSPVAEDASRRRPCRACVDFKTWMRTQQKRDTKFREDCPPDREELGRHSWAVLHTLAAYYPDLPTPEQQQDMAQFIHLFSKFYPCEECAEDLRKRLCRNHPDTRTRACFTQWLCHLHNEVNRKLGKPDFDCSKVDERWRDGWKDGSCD

Chain of Photoreceptor-specific nuclear receptor (Q9Y5X4 whole entry, the tested form may be a part): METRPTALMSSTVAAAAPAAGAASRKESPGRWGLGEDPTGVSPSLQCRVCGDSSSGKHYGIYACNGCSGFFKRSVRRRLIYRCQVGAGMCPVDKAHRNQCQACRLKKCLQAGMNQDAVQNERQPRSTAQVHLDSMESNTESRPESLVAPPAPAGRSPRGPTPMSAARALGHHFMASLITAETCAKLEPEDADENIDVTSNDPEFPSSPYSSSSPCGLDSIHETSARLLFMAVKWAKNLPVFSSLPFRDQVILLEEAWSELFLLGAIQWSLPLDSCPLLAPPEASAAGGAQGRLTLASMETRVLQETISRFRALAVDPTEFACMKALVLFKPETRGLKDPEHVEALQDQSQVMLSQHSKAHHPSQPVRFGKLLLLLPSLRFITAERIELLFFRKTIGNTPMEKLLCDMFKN
Chain of Beta-galactosidase (Q8VNN2 whole entry): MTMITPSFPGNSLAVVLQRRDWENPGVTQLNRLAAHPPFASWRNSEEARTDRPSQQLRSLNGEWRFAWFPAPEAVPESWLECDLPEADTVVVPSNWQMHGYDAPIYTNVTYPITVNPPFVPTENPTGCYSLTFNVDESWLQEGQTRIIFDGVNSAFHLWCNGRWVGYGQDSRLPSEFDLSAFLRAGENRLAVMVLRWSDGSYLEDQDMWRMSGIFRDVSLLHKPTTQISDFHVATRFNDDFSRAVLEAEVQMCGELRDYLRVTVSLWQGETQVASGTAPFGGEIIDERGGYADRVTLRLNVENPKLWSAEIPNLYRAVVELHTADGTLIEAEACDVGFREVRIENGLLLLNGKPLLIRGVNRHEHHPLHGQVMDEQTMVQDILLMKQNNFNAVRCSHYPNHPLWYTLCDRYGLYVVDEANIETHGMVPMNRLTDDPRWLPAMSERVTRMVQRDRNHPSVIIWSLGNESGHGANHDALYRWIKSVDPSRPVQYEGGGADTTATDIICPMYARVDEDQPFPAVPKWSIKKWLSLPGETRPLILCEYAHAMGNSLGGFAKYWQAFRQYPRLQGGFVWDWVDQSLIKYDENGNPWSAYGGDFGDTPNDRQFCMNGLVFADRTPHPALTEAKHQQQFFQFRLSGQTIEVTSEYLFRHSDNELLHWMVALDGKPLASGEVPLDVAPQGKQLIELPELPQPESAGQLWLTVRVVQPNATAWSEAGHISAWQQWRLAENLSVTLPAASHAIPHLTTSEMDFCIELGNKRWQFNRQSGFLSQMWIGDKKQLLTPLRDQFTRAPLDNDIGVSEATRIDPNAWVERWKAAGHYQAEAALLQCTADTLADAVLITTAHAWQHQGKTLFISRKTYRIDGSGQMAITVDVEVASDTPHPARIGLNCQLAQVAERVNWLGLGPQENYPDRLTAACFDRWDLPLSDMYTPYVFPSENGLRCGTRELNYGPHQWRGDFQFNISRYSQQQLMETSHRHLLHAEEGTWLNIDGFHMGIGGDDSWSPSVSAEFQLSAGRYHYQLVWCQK
Chain of 26S proteasome non-ATPase regulatory subunit 14 (O00487 whole entry): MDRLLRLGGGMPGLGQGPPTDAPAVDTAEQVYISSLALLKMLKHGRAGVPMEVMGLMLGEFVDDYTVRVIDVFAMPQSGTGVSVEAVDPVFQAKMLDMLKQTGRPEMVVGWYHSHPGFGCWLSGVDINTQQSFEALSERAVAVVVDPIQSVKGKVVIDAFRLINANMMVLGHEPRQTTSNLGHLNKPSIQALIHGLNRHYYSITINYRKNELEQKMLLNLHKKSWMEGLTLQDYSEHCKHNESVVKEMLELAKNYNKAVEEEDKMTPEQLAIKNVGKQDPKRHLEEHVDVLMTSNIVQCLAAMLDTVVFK
Chain of 72 kDa type IV collagenase (P08253 whole entry): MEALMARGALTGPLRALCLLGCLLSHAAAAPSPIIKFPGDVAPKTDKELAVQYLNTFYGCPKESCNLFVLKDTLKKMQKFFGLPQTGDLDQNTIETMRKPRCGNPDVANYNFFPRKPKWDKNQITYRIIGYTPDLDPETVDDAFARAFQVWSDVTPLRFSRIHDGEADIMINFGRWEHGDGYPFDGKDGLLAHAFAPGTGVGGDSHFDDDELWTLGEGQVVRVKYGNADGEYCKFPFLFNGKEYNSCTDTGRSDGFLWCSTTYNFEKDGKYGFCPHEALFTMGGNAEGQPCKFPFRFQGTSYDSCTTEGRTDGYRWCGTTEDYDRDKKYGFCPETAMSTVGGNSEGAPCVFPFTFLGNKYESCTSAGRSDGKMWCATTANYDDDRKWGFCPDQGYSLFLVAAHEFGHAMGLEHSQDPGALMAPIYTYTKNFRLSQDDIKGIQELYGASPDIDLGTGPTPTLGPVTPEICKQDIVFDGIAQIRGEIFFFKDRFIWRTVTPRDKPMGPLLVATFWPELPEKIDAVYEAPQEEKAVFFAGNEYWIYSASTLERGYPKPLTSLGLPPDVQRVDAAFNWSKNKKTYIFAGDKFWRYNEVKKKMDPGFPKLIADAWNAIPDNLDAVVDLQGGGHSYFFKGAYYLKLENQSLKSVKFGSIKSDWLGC
Chain of Induced myeloid leukemia cell differentiation protein Mcl-1 (Q07820 whole entry): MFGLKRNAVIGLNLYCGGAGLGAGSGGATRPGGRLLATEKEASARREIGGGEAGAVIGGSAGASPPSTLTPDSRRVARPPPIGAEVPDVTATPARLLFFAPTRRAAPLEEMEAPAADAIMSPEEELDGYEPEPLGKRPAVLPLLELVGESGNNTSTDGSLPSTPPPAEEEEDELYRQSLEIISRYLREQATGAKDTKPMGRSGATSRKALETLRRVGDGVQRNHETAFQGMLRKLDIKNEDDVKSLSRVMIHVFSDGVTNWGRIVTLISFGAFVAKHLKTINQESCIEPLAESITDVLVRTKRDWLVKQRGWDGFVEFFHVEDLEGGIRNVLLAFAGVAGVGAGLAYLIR

Turning to `N#C/C(=C\c1ccc(Sc2nc3ccccc3[nH]2)o1)c1ccccc1`, the EC50 in [1] was 23.6 µM (active). Besides, the IC50 in [2] was 4.69 µM (active).
`O=C(Nc1nc(-c2ccccn2)cs1)c1cc(Cl)ccc1[N+](=O)[O-]`: the figures for the 50% effective concentration (EC50) in the experiment “cells [3]”, at Beta-galactosidase and in “cells [5]” were 9.68 µM (active), > 40 µM (inactive) and > 350 µM (not active), respectively. In experiment [4], the IC50 is 5.37 µM (active). For the same molecule, the half-maximal activity concentration (AC50) in the experiment on INS1 was 1.06 µM (active).
Turning to `CC(C(=O)OCC(=O)c1cccc([N+](=O)[O-])c1)N1C(=O)C2C3C=CC(C3)C2C1=O` (configuration not stated), the EC50 on Beta-galactosidase was > 40 µM (inactive). Also, the IC50 in experiment [4] is listed as > 40 µM (not active).
As for `CCOc1ccc(CONS(=O)(=O)c2ccc(NC(C)=O)cc2)cc1Cl`, the IC50 in [6] was 17.7 µM (inactive); in experiment [7] it was 83.3 µM (inactive); in [8], 11.1 µM (inactive).
Consider `COC(=O)c1c(C(=O)OC)c(-c2ccccc2)n2c1C[S+]([O-])C2` (configuration not stated), for which the concentration at half-maximal activity (AC50) in experiment [9] is 4.67 µM (active).
For `COC(=O)C1=C(C)N(Cc2ccccc2)C(=NCC(C)C)N[C@H]1c1cccc(F)c1`, the EC50 at Beta-galactosidase is > 40 µM (inactive). Besides, in experiment [4], the IC50 was > 40 µM (not active).
Turning to `CCOc1ccc(CCNC(=O)c2cccnc2N2CCCC2)cc1OCC`, the EC50 at Beta-galactosidase was > 40 µM (inactive). In addition, the IC50 in [4] is reported as > 40 µM (not active).
Consider `Cc1c(C(=O)Nc2ccc(Oc3ccccc3)cc2)sc2nc3n(c(=O)c12)CCC3`, for which the EC50 is 6.66 µM (active) in [10], 39 µM (active) at Streptokinase A and > 150 µM (not active) with Streptococcus. Moreover, the IC50 in experiment [2] was 2.78 µM (active).
For the molecule `Cc1ccc(NC(=O)CN(C)C(=O)c2cc(S(=O)(=O)N(C)C)ccc2N2CCCC2)cc1`, the IC50 is 10.4 µM (inactive) in [6], 83.3 µM (inactive) in experiment [7] and 4.27 µM (active) in experiment [8].
As for `COc1ccc(OC)c(NC(=O)CSc2nnnn2-c2ccc3c(c2)OCO3)c1`, in experiment [2], the IC50 is 0.24 µM (active).
For `Cc1nc2nc(SCC(=O)N3CCOCC3)nn2c(C)c1Cc1c(F)cccc1Cl`, the AC50 in experiment [9] is 0.217 µM (active).
Turning to `CCn1c(SCC(=O)c2c[nH]c3ccccc23)nc2cc(S(=O)(=O)N3CCOCC3)ccc21`, the IC50 was 12.2 µM (inactive) in experiment [6], 83.3 µM (inactive) in [7] and 2.58 µM (active) in experiment [8].
Regarding `CCC(Sc1nc(C)cc(=O)[nH]1)C(=O)Nc1sc2c(c1C#N)CCCC2` (configuration not stated), the half-inhibitory concentration (IC50) in experiment [2] was 5.4 µM (active).
With `CCOC(=O)c1c(C)[n+](-c2ccc(C)cc2)c(CC)c2cc(OC)c(OC)cc12`, the EC50 is 0.292 µM (active) in experiment [11] and > 60 µM (not active) in experiment [12]. Moreover, the AC50 in experiment [9] was 4.21 µM (active).
As for `CS(=O)(=O)C1=NSC2=NC(=O)/C(=C\c3cccn3-c3ccccc3Cl)C(=N)N21`, the IC50 in [13] was 4.35 µM (active); in [14], 30 µM (active); in [15] it was > 100 µM (inactive); on Prothrombin, 52.6 µM (active).
On to `COC(=O)C[C@@H]1C[C@@H]2c3cc(NC(=O)c4cccnc4)ccc3O[C@@H]2[C@@H](CO)O1`, for which the half-maximal activity concentration (AC50) in [9] was 13.6 µM (active).
In the case of `C/C(=N\Nc1nc2ccccc2[nH]1)c1ccc2c(c1)OCO2`, the EC50 is 13.3 µM (active) in experiment [10]; > 150 µM (not active) on Streptokinase A; 1.37 µM (active) in experiment [11]; > 60 µM (not active) in experiment [12]; > 150 µM (not active) with Streptococcus. Further, the AC50 in experiment [16] was 0.116 µM (active). The IC50 in experiment [6] is 28.2 µM (inactive); in experiment [7], 48.4 µM (inactive); in experiment [8] it was 119 µM (inactive).

(Values after ChEMBL document CHEMBL1201862, “PubChem BioAssay data set” (2004).)
